What was measured:
medeka fish embryo = experiment: Effect of chemical substances on fish embryo development in cultivation chamber of microfluidic continuous flow device; type: in vivo, Medaka (Oryzias latipes); conditions: for death of the Medaka embryos: after 25 hours
Description: A medeka fish embryo was introduced into the cultivation chamber using a pipette. The fish embryos maintain the same size until they hatch. Once all the embryos are transferred to the 8 wells of the microfluidic continuous flow device shown in FIG. 1, a coverslip is placed over the wells to seal them off.
In two different experiments EtOH (ethanol, 0-5%) and TAA ([…], 0-3%) were used as chemical substances to test the reaction of the fish embryo retained in the cultivation chamber of the microfluidic continuous flow device shown in FIG. 1. Both substances affect the liver (TAA induces lipid peroxidation which leads to liver damage). An over-dosage of both will lead to death. The flow rate in the microfluidic continuous flow device is about 1 ml/2.5 hours or 400 μl/h.

zebrafish = conditions: cited from earlier work

What does the source list for `CCO` [EtOH, ethanol]?
intoxication of the embryo versus concentration (medeka fish embryo; EtOH 0 to 5 v/v %, over 25 hours): The higher the concentration of the EtOH, the intoxicated the embryo is; effect on organs (medeka fish embryo; EtOH highest concentration (4.27% and 5%), 25 hours): the organs seem to be affected; organ colour change (medeka fish embryo; ethanol, the higher concentrations): the organs turned black; number of twitches (movements) of the embryo in the chamber (medeka fish embryo; rising ethanol concentration (0 to 5 v/v %)): the number of twitches rose with the ethanol concentration

What does the source list for `CC1(C)O[C@@H]2C[C@H]3[C@@H]4CCC5=CC(=O)C=C[C@]5(C)[C@@]4(F)[C@@H](O)C[C@]3(C)[C@]2(C(=O)CO)O1` [TAA, triamcinolone acetonide]?
death of the Medaka embryos (medeka fish embryo; TAA 1.5, 2 and 2.5 v/v %): died; death of the Medaka embryo (medeka fish embryo; TAA 3 v/v % (highest concentration), after 21 hours, stage 38): died and caused the death of the Medaka embryo; death of the Medaka embryos (medeka fish embryo; TAA, the 4 highest concentrations): had died

With `CNC(=O)Oc1cccc2ccccc12` [carbaryl] as the compound, how does the “effects observed on early development” value (zebrafish) read?
The value was “Red blood cell accumulation and delayed hatching”.

Source: patent US20110269226A1, “Microfluidic Continuous Flow Device for Culturing Biological Material” (priority 2008, published 2011)
